Measurements reported in article PMC10778824, “New Chalcone Derivatives Containing 2,4-Dichlorobenzenesulfonamide Moiety with Anticancer and Antioxidant Properties” (International Journal of Molecular Sciences, 2023).
In brackets after ≈: the same amount, converted by molar mass.

Legend:
[1] = system: colon cancer cells (HTC-116); set-up: method as in PMID 12556221; settings: preclinical tests; cited from earlier work
[2] = system: hepatocellular carcinoma HepG2 cells; set-up: method as in PMID 32545423; settings: cited from earlier work
[3] = molecular target: BRAF serine–threonine kinase; set-up: method as in PMID 22646766; settings: cited from earlier work
[4] = DPPH radical scavenging assay; settings: for % of DPPH radical inhibition: concentration of 800 µg/mL
Description: The DPPH radical scavenging assay of samples (ligands or complexes) was performed with ascorbic acid as a standard. Different concentrations of chalcone derivatives, dissolved in DMSO, were mixed with the same amount of 0.06 mM DPPH methanolic solution and incubated at room temperature in the dark for 30 min. The absorbance was analyzed at λ = 517 nm using a 96-well microplate reader (Epoch, BioTek System, Winooski, VT, USA). The control was composed of DPPH and DMSO. DPPH inhibition was calculated according to the following Formula (2):DPPH Inhibition (%) = [(Acontrol − Asample)/Acontrol] × 100%(2)

[5] = ABTS radical scavenging assay
Description: The ABTS radical scavenging assay of chalcone derivatives was performed with ascorbic acid as a standard. Different concentrations of samples, dissolved in DMSO, were mixed with 170 μL of ABTS solution (2 mM ABTS diammonium salt and 3.5 mM potassium persulfate), and water was added to a final volume of 300 μL. ABTS solution with DMSO was used as a control. […] ABTS inhibition was calculated according to the following Formula (3):ABTS Inhibition (%) = [(Acontrol − Asample)/Acontrol] × 100%(3)

[6] = β-Carotene bleaching test
Description: β-Carotene bleaching test was based on the method described by Olszowy et al. with some modifications. First, 1 mg of β-carotene was dissolved in 5 mL of chloroform. Afterwards, […] of linoleic acid and 200 mg of Tween 40 were added. The chloroform was evaporated, and 50 mL of oxygenized water was added. The created emulsion was mixed with different concentrations of chalcone derivatives. β-carotene bleaching was analyzed at λ = 492 nm before (t = 0 min) and after 90 min (t = 90 min) of incubation at 50 °C (Epoch, BioTek Instruments, Santa Clara, CA, USA). Ascorbic acid was used as a standard. The control was composed of emulsion and DMSO.
The results were calculated according to the following Formula (4):[(AsampleT0 − AsampleT90)/(AcontrolT0 − AcontrolT90) × 100%(4)

K-562 cells = settings: 10 µM; cited from earlier work
MCF-7 breast = system: MCF-7 breast; set-up: method as in PMID 29223717; settings: cited from earlier work
143B osteosarcoma = system: 143B osteosarcoma; set-up: method as in PMID 29223717; settings: cited from earlier work
HCT-116 colon = system: HCT-116 colon; set-up: method as in PMID 29223717; settings: cited from earlier work
neutrophil elastase = molecular target: T1, neutrophil elastase (Sus scrofa, UniProt P00772); test: Elastase assay (SANA substrate); assay type: biochemical, porcine; settings: Tris-HCl pH 8.0, SANA substrate; read-out: neutrophil elastase inhibition IC50 (converted)
T1 construct: purchased Sigma Chemical Co. (St. Louis, MO, USA)
T1 sequence (P00772 27-266): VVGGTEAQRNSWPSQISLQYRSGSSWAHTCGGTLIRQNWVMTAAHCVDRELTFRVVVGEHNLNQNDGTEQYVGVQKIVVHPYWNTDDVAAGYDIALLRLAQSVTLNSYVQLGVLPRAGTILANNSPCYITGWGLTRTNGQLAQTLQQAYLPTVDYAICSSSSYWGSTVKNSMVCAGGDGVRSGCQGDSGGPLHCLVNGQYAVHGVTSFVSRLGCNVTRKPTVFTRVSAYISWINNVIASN
Description: The elastase analysis was performed according to the spectrophotometric method with oleanolic acid as a reference. The reaction mixture (Tris-HCl buffer (pH 8.0), 1.0 μg/mL porcine pancreatic elastase, and different concentrations of chalcone derivatives was preincubated at room temperature for 15 min. Afterwards, the addition of the substrate—SANA—started the reaction. Product formation changes were analyzed at λ = 410 nm for 20 min every 20 s (Epoch, BioTek Instruments, Santa Clara, CA, USA). The control was composed of Tris-HCl buffer (pH 8.0), an appropriate concentration of the chalcone derivative, and SANA.

[7] = system: human neonatal fibroblasts; test: MTT assay, noncancerous fibroblasts; assay type: cell-based; settings: Homo sapiens, Fibroblast, 24 h treatment
Description: (§1) The human gastric adenocarcinoma AGS, cervical cancer HeLa, and acute promyelocytic leukemia HL-60 cells were obtained from the American Type Culture Collection (ATCC, Manassas, VA, USA). Human neonatal fibroblasts were obtained from LGC Standards (Luckenwalde, Germany). The HeLa and AGS lines were cultured in Dulbecco’s modified Eagle’s medium (DMEM) and DMEM/F12 medium, respectively. The HL-60 line was maintained in RPMI-1640 medium. Fibroblasts were cultured in Fibroblast Growth Medium with Supplement Mix. All the media were supplemented with 100 units/mL of penicillin, 100 µg/mL of streptomycin, and 10% (v/v) fetal bovine serum (FBS) (Merck Millipore, Burlington, MA, USA). The cells were incubated at 37 °C and 5% CO2.
(§2) To estimate the cytotoxic effect of the five compounds (4–8), MTT (3-(4,5-dimethylthiazol-2-yl)-2,5-diphenyltetrazolium bromide) assay was used. Oxaliplatin was used as a positive control in this test. All the cell lines were seeded in 96-well plates at a density of 5 × 10^3 cells/well and treated for 24 h with the compounds at concentrations of 0.5–40 µg/mL. Oxaliplatin was tested in the range of 20–400 µg/mL (50–1000 µM). After treatment, the cells were incubated with MTT (0.5 mg/mL; Merck Millipore, Burlington, MA, USA) for 3 h. Then, DMSO was used to dissolve formazan crystals, and the absorbance of the formazan solution was measured with a plate reader (Epoch, BioTek Instruments, Santa Clara, CA, USA). All the results (±standard deviation (SD)) were obtained from six repetitions in at least two independent experiments. The data are expressed as IC50 values (µg/mL).

[8] = system: acute promyelocytic leukemia HL-60; test: MTT assay, HL-60 cells; assay type: cell-based, human
Description: as §1, §2

[9] = system: Helicobacter pylori ATCC43504; test: MIC determination; assay type: cell-based; settings: 37 °C, 48 h
Description: (§3) The MIC determinations for Staphylococcus epidermidis ATCC14990, Staphylococcus aureus ATCC6538, Enterococcus faecalis ATCC51299, Klebsiella pneumoniae ATCC13883, Escherichia coli ATCC8739, Salmonella enterica ATCC13076, Helicobacter pylori ATCC43504, Campylobacter jejuni ZMF, Campylobacter coli ZMF, Bacillus cereus PCM 1948,2019 (ATCC11778), and Listeria monocytogenes PCM2191 were performed based on the methodology described by Krauze-Baranowska et al.. The procedure for H. pylori was used in the experiments with Campylobacter strains, and the procedure for B. subtilis was used in the experiments with L. monocytogenes and B. cereus. The tested samples were dissolved in DMSO and diluted with water (concentration of approximately 500 μg/mL). The solutions were diluted geometrically by transferring the mixture/dilution (100 μL) from the first to the twelfth well of the microtiter plate. The final concentrations of samples used for antimicrobial effects ranged from 500 to 0.006 µg/mL. Ampicillin was used as a reference compound in the concentration range of 128 to 0.0625 µg/mL. The tests were incubated at 37 °C for 48 h. The diluent concentration had no effect on the activity of the tested compounds. All experiments were performed in triplicate.

Campylobacter jejuni ZMF = test: MIC determination; assay type: cell-based; settings: 37 °C, 48 h
Description: as §3

Campylobacter coli ZMF = test: MIC determination; assay type: cell-based; settings: 37 °C, 48 h
Description: as §3

[10] = system: Bacillus cereus PCM 1948,2019 (ATCC11778); test: MIC determination; assay type: cell-based; settings: 37 °C, 48 h
Description: as §3

[11] = system: Staphylococcus aureus ATCC6538; test: MIC determination; assay type: cell-based; settings: 37 °C, 48 h
Description: as §3

[12] = system: Klebsiella pneumoniae ATCC13883; test: MIC determination; assay type: cell-based; settings: 37 °C, 48 h
Description: as §3

[13] = system: Listeria monocytogenes PCM2191; test: MIC determination; assay type: cell-based; settings: 37 °C, 48 h
Description: as §3

[14] = system: Enterococcus faecalis ATCC51299; test: MIC determination; assay type: cell-based; settings: 37 °C, 48 h
Description: as §3

[15] = system: Staphylococcus epidermidis ATCC14990; test: MIC determination; assay type: cell-based; settings: 37 °C, 48 h
Description: as §3

[16] = system: Escherichia coli ATCC8739; test: MIC determination; assay type: cell-based; settings: 37 °C, 48 h
Description: as §3

[17] = system: Salmonella enterica ATCC13076; test: MIC determination; assay type: cell-based; settings: 37 °C, 48 h
Description: as §3

[18] = system: gastric adenocarcinoma AGS; test: MTT assay, AGS cells; assay type: cell-based, human
Description: as §1, §2

[19] = system: cancer cells (HeLa, HL-60, AGS); test: MTT assay, cancer cells taken together; assay type: cell-based, human; settings: HL-60 and AGS together
Description: as §1, §2

cervical cancer HeLa = test: MTT assay, HeLa cells; assay type: cell-based, human
Description: as §1, §2

[20] = SI = IC50 noncancer cells/IC50 cancer cells, in relation to human neonatal fibroblasts

For `NS(=O)(=O)c1ccc(S(=O)(=O)Nc2cccc3c(Cl)c[nH]c23)cc1` [Indisulam], the “IC50 colon cancer cells (HTC-116)” value [1] is given as 0.11 µg/mL (≈ 0.285 µM).

In the case of `COc1cc(O)cc(O)c1C(=O)/C=C/c1ccccc1` [cardamonin], the IC50 [2] is given as 17100 ± 592 nM.

In the case of `CCCS(=O)(=O)Nc1ccc(F)c(C(=O)c2c[nH]c3ncc(-c4ccc(Cl)cc4)cc23)c1F` [vemurafenib], the IC50 [3] is listed as 31 nM.

For `O=C1O[C@H]([C@@H](O)CO)C(O)=C1O` [ascorbic acid, reference compound], the “DPPH IC50” value [4] was 12.75 ± 0.25 µg/mL, the “% of DPPH radical inhibition” value [4] was 100% and the “ABTS IC50” value [5] was 20.43 ± 0.79 µg/mL. For the same compound, the “% of ABTS radical inhibition” value ([5]; concentration of 800 µg/mL) was 100% and the “β-carotene bleaching IC50” value ([6]; 90 min at 50 °C) was 15.6 ± 0.65 µg/mL.

In the case of `COc1ccc(C(=O)C=Cc2ccccc2)cc1S(N)(=O)=O` [5-cinnamoyl-2-methoxybenzenesulfonamide], the “viability of leukemia cells” value (K-562 cells) is listed as “less than 10%”.

For `Cc1cccc(S(=O)(=O)Nc2cccc(/C=C/C(=O)c3nc4ccccc4[nH]3)c2)c1` [(E)-N-{3-[3-(1H-benzo[d]imidazol-2-yl)-3-oxoprop-1-en-1-yl]phenyl}-3-methylbenzenesulfonamide], the IC50 (MCF-7 breast) is given as 890 nM, the IC50 (143B osteosarcoma) is given as 790 nM and the IC50 (HCT-116 colon) is given as 600 nM.

In the case of `Cc1cc(S(=O)(=O)Nc2ccc(C(=O)/C=C/c3ccccc3)cc2)c(Cl)cc1Cl` [Compound 4, (E)-2,4-Dichloro-N-(4-Cinnamoylphenyl)-5-Methylbenzenesulfonamide], the “% of DPPH radical inhibition” value [4] is reported as 19.49 ± 0.38%, the IC50 (neutrophil elastase) is reported as 119000 nM and the IC50 [7] is reported as 32.1 ± 2.91 µg/mL (≈ 72 µM). The IC50 ([8]; Homo sapiens, HL-60, 24 h, MTT, 24 h treatment) was 2.37 ± 0.23 µg/mL (≈ 5.31 µM), the “selectivity index HL-60” value [8, 20] was 13.57 and the MIC [9] was greater than 500 µg/mL. The MIC (Campylobacter jejuni ZMF) was greater than 500 µg/mL, the MIC (Campylobacter coli ZMF) was greater than 500 µg/mL and the MIC [10] was greater than 500 µg/mL. It also gave an MIC [11] greater than 500 µg/mL, an MIC [12] greater than 500 µg/mL and an MIC [13] greater than 500 µg/mL. The MIC [14] was greater than 500 µg/mL, the MIC [15] was greater than 500 µg/mL and the MIC [16] was greater than 500 µg/mL. The MIC [17] was greater than 500 µg/mL, the “protection of lipids oxidation / reduction of lipid peroxidation (in words)” value ([6]; compared to ascorbic acid) was “weaker properties” and the IC50 ([18]; Homo sapiens, AGS, 24 h, MTT, 24 h treatment) was 1.23 ± 0.23 µg/mL (≈ 2.76 µM). For the same compound, the “selectivity index AGS” value [18, 20] was 26.14, the “IC50 toward cancer cells” value [19] was “weaker activity” and the IC50 (cervical cancer HeLa; Homo sapiens, HeLa, MTT, 24 h treatment) was 9.63 ± 0.06 µg/mL (≈ 21.6 µM). The “selectivity index HeLa” value (cervical cancer HeLa; [20]) was 3.34.

For methoxytolylacryloylbenzenesulfonamide, the “viability of leukemia cells” value (K-562 cells) is listed as “less than 10%”.
